# Measured values as given in patent US10391201B2, “Gene therapy” (Ospedale San Raffaele S.r.l., priority 2014, dated 2019).
# Experiments:
# [1] = tested on: monocyte-derived macrophages (MDM); assay: SINLV-GFP lentiviral transduction of monocyte-derived macrophages; type: cell-based, human; details: MOI 1, 10 μM CsA or 10 μg/mL rapamycin, FACS 5 days
# Experimental: (§1) CD4^+ T cells were activated in RPMI, supplemented with 10% FBS, penicillin (100 IU/mL), streptomycin (100 μg/mL), 2% glutamine, phytohaemagglutanin (PHA) (2 μg/mL, Roche) and IL-2 (300 IU/mL, Novartis) for three days and maintained in RPMI supplemented with 10% FBS, penicillin (100 IU/mL), streptomycin (100 μg/mL), 2% glutamine and IL-2 (300 UI/mL). Monocyte-derived macrophages (MDM) were differentiated from isolated CD14^+ monocytes in DMEM supplemented with 10% FBS, penicillin (100 IU/mL), streptomycin (100 μg/mL), 2% glutamine and 5% human serum AB (Lonza) for seven days.
# (§2) Human CB and BM-derived haematopoietic stem/progenitor cells (HSPC) were cultured in serum-free StemSpan medium (StemCell Technologies) supplemented with 100 ng/mL recombinant human stem cell factor (rhSCF), 20 ng/mL recombinant human thrombopoietin (rhTPO), 100 ng/mL recombinant human Flt3 ligand (rhFlt3) and 20 ng/mL recombinant human IL6 (rhIL6) (all from Peprotech) 16 to 24 hours prior to transduction. […] After transduction, cells were washed and maintained serum-free StemSpan supplemented with cytokines as above until the reading of GFP-positive (GFP+) cells by FACS. […]
# (§3) GFP expression in transduced cells was measured 5-7 days post-transduction. […]
# [2] = tested on: Murine Lin− HSPC; assay: SINLV-GFP transduction of murine Lin- HSPC; type: cell-based; details: MOI 1, 10 μM CsA, 10 μg/ml Rapamycin or combination (FIG. 29A)
# Experimental: The percentage of GFP+ cells was evaluated by FACS 5 days post-transduction. Data are the mean±SEM of three independent experiments for HSPC and three independent transductions for CD4+ T cells. p values are for One way ANOVA with Bonferroni's multiple comparison.
# [3] = tested on: IFNα; assay: IFNα ELISA on supernatants of transduced CB-derived HSPC; type: cell-based, human; details: CB-derived HSPC 24 hours after exposure (FIG. 26)
# Experimental: IFNα levels in supernatants from HSPC transduced in the presence of the agents. […] IFNα concentration was assessed using the VeriKine™ Human IFN Alpha ELISA Kit. HUVEC-10 cells were used as a positive control and the medium in which the cells were cultured as the negative control. Data represent the mean±SEM of three independent experiments.
# To assess the secretion of human IFNα upon transduction of CB-derived HSPCs in the presence of the different compounds, supernatants from transduced cells were harvested 24 hours post-transduction and the IFNα concentration was assessed using the VeriKine™ Human IFN Alpha ELISA Kit (PBL interferon source, #41100) according to manufacturer's instructions.
# [4] = tested on: CB-derived CD34+ HSPC clonogenic progenitors; assay: Colony-forming cell assay of transduced CB-derived CD34+ cells; type: cell-based, human; details: MOI 10; plating of vital cells in methylcellulose (FIG. 21A)
# Experimental: Colony-forming cell assays were performed by plating 8×10^2 human cord blood-derived CD34^+ cells transduced with SINLV-GFP at a MOI of 10 in presence of the different compounds in a methylcellulose-based medium (Methocult GF4434, Stem Cell Technologies). 15 days later, colonies were scored by light microscopy for colony numbers and morphology. CFU-E and BFU-E were scored as erythroid colonies, while CFU-G, CFU-M, CFU-GM and CFU-GEMM as myeloid colonies.
# Human differentiated cells from CFC were harvested from a single plate (pool of colonies) and mixed into a single cell suspension. Cells were then washed and resuspended in PBS containing 2% FBS. For immunostaining, cells were incubated with anti-human receptor blocking antibodies for 15 min at 4° C. and then stained for 20 min at 4° C. with anti-human CD235a and CD33 antibodies (for antibodies, see Table 1). To exclude dead cells from the analysis, cells were washed and resuspended in PBS containing 10 ng/mL 7-aminoactinomycin D (7-AAD).
# [5] = tested on: BM-derived CD34+ cells; assay: γ-retroviral SINRV-GFP transduction of BM-derived CD34+ cells; type: cell-based, human; details: BM-derived HSPC; MOI of 10 (FIG. 24)
# Experimental: A, B. The percentage of GFP+ cells was evaluated by FACS five days after transduction. Data represent the mean±SEM of four independent experiments.
# Third generation lentivirus (LV) stocks were prepared, concentrated and titred as previously described (Dull, T. et al. (1998) J. Virol. 72: 8463-71; Follenzi, A. et al. (2000) Nat. Genetics 25: 217-22). […]. Bald vector, a normal LV produced by omitting the Env-encoding plasmid during vector production, was produced as a negative control. During vector production, the Env construct was substituted by pcDNA3.1 (Invitrogen Inc.). […]
# as §2
# [6] = tested on: CD4+ T cells; assay: SINLV-GFP lentiviral transduction of activated CD4+ T cells; type: cell-based, human
# Experimental: as §1, §2, §3
smiles,measurement,setting,value
"CO[C@H]1C[C@@H]2CC[C@@H](C)[C@@](O)(O2)C(=O)C(=O)N2CCCC[C@H]2C(=O)O[C@H]([C@H](C)C[C@@H]2CC[C@@H](O)[C@H](OC)C2)CC(=O)[C@H](C)/C=C(\C)[C@@H](O)[C@@H](OC)C(=O)[C@H](C)C[C@H](C)/C=C/C=C/C=C/1C [rapamycin, Rapamycin]",decrease in GFP+ cells (transduction),[1],2.8 fold
same,transduction (percentage of GFP+ cells),[2],significantly improved transduction
same,IFNα secretion,[3],no detectable levels
same,"number of total, CFU-GM (myeloid) and BFU-E (erythroid) colonies",[4],No significant differences
same,percentage of GFP+ cells with γ-retroviral SINRV,[5],neither compound was able to significantly increase
same,impact on transduction among the different CA mutants,[6]; CA mutant SINLVs MOI 1,did not vary
same,impact on LV transduction efficiency (in words),"[6]; MOI 1, 20 μm FK506 or 10 μg/mL rapamycin",a similar trend was observed
